Tests used:
[1] = system: seven cancer cell lines; test: DCFDA flow cytometric ROS assay, acute; type: cell-based, human; parameters: key: no impact (0); weak impact (+); strong impact (++); conditions: summary grade
Method: According to the hypothesized mechanism of action (see Figure 3), pentathiepins can create oxidative stress via generation of reactive sulfur precursors. We have previously reported that a representative pentathiepin can increase the intracellular levels of ROS in two cancer cell lines. This effect was thus further evaluated with the new compounds in seven cell lines (Figure 8). The cells were incubated for 15 min with 25.0 µM pentathiepin and subsequently analyzed by using the intracellular ROS sensor 2′,7′-dichlorodihydrofluorescein diacetate (DCFDA) by flow cytometry.
In order to quantify intracellular ROS, we performed a flow cytometric assay based on the ROS-sensor 2′,7′-dichlorofluorescein diacetate (DCFDA). For acute effects of pentathiepins on intracellular ROS levels, the cells were stained with DCFDA first and subsequently incubated with 25 µM of compound for 10 min. […] Per condition, 250,000 cells were seeded in 2 mL of medium per well of a 6-well plate and allowed to adhere overnight. For measurement of acute ROS, the cells were stained with 1 mL of a 20 µM DCFDA-PBS solution for 30 min under standard incubation conditions. Afterwards, the solution was discarded, and the monolayer washed twice with 1 mL of PBS before 3 mL of medium containing 25 µM of pentathiepin was added for 10 min at 37 °C. After removing the solution and washing again with PBS, the cells were detached by using 0.5 mL of a diluted trypsin/EDTA-PBS solution (25%) and harvested with 1 mL of culture medium by carefully rinsing the wells. The cell suspension was transferred to 1.5 mL tubes, centrifuged for 5 min at 500× g, and washed with 1 mL of PBS. After removing the supernatant, each pellet was resuspended in 0.5 mL of PBS for measurement via the MACSquant Analyzer 10 at λEx/Em = 488/530 nm. Relative ROS levels resulting from treatment with pentathiepin were calculated by relating the fluorescence intensity of treated samples to the negative control. For the experiments covering periods of 24 and 48 h, the cells were incubated with the compounds first and stained with DCFDA afterwards. To assess the influence of additional GSH, we included 3 or 30 µM GSH to the medium containing 25 µM of pentathiepin, and the protocol was followed as described.

[2] = system: GR/CAT; test: GR/CAT inhibition (summary of off-target assays); type: biochemical; parameters: key: no impact (0); weak impact (+); strong impact (++); conditions: summary grade
Method: To assess the specificity of inhibitors toward the GPx1, we performed enzymatic assays with other relevant antioxidant enzymes. These included the glutathione reductase (GR; yeast-derived), which is an auxiliary component of the GPx1 assay, and catalase (CAT; bovine), a key redox enzyme that fulfils a similar enzymatic task as the GPx1 by detoxifying hydrogen peroxide. None of the pentathiepins altered the activity of either enzyme at a concentration of 25 µM (Figure 5b,c).
Off-target assays were conducted to assess the specificity of the pentathiepins for inhibiting the GPx1; these were the activities of GR and CAT (from bovine liver) that have previously been described. As the baker’s yeast GR is an important component in the GPx assay, its inhibition by pentathiepins had to be excluded. A fixed pentathiepin concentration of 25 µM was tested in triplicate, following the same principle as mentioned before, by monitoring the consumption of NADPH by the GR at λ = 340 nm while GSSG is reduced back to GSH. All assay components were prepared in potassium phosphate buffer (50 mM, pH 7.4, 1.1 mM EDTA, 0.01% Triton-X solution), except for the inhibitor that was diluted in DMF. Subsequently, 180 µL of buffer was added per well followed by 30 µL of a 2.0 U/mL GR solution, 30 µL of a 2.0 mM NADPH solution, and 30 µL of a 250 µM pentathiepin solution or 30 µL of DMF as negative control. Finally, to start the reaction, 30 µL of a 2.5 mM GSSG solution was added, resulting in final concentrations of 0.2 U/mL of GR, 0.2 mM of NADPH, 25 µM of pentathiepin, and 0.25 mM of GSSG. After measuring the decrease of NADPH every 15 s for 30 min at room temperature, the relative inhibition of the GR was calculated by relating the activity of the pentathiepin-treated samples to the negative control.
The CAT activity assay is based on the principle that in the presence of H2O2 and heat, and dichromate in acetic acid is reduced to chromic acetate via perchromic acid as unstable intermediate. Here, the amount of chromic acetate is measured twice, once directly after adding H2O2 (t0min) and once again after the CAT (bovine origin) split the H2O2 for a period of 10 min (t10min) in the presence or absence of a putative inhibitor. Samples in this assay included a blank (+CAT/+DMF/−H2O2), a H2O2 standard (−CAT/+DMF/+H2O2), a negative control (+CAT/+DMF/+H2O2), and the test conditions (+CAT/+25 µM pentathiepin/+H2O2). For each condition, 3.0 mL of 0.002 mg/mL CAT in potassium phosphate buffer (50 mM, pH 7.4, EDTA 1.1 mM, Triton-X 0.01%) were prepared in a glass tube. Additionally, two tubes were prepared per condition each containing 2 mL of a reagent containing 1 part of an aqueous solution of K2Cr2O7 (5%) and 2 parts glacial acetic acid. Subsequently, the solvent or inhibitors were added, and the tubes placed on a shaker for 5 min. To start the reaction, 61.8 µL of a 30% H2O2 solution was added and then mixed, and immediately 1 mL was transferred to one tube containing the K2Cr2O7/acetic acid solution (t0min). The remaining 2 mL was incubated on a shaker for 10 min, and then the previous step was repeated (t10min). Finally, all tubes were boiled in a water bath and cooled down to room temperature, and then absorbance was measured at λ = 570 nm and the instrument was blanked with the blank solution. The difference in absorbance between t0min and t10min was calculated, and all samples were related to the negative control.

[3] = system: seven cancer cell lines; test: DCFDA flow cytometric ROS assay, acute; type: cell-based, human; conditions: 25 µM, 15 min, vs solvent control

| SMILES | ROS induction [1] | GR/CAT inhibition [2] | intracellular ROS levels [3] |
| --- | --- | --- | --- |
| CCOc1c2c(c3ccc(C(=O)N(CC)CC)cn13)SSSSS2 [Compound 4, 6-Ethoxy-N,N’-diethyl-[1,2,3,4,5]pentathiepino[6,7-a]indolizine-9-carboxamide] | ++ | 0 | burst of ROS in all cell lines |
| CCOc1c2c(c3cnc4[nH]c(-c5ccc(OC)cc5)cc4n13)SSSSS2 [Compound 1, 11-Ethoxy-2-(4-methoxyphenyl)-3H-[1,2,3,4,5]pentathiepino[6′,7′:3,4]pyrrolo[1,2-a]pyrrolo[2,3-e]pyrazine] | 0 | 0 | did not change the intracellular ROS levels in any of the cell lines |
| CCOc1c2c(c3ccc(C(=O)N4CCCCC4)cn13)SSSSS2 [Compound 2, (6-Ethoxy-[1,2,3,4,5]pentathiepino[6,7-a]indolizin-9-yl)(piperidinyl)methanone] | ++ | 0 | burst of ROS in all cell lines |
| CCOc1c2c(c3ccc(C(=O)N4CCOCC4)cn13)SSSSS2 [Compound 3, (6-Ethoxy-[1,2,3,4,5]pentathiepino[6,7-a]indolizin-9-yl)(morpholino)methanone] | ++ | 0 | burst of ROS in all cell lines |
| CCOc1c2c(c3ccc(C(=O)N4CCN(C(=O)c5ccc(F)cc5)CC4)cn13)SSSSS2 [Compound 5, (6-Ethoxy-[1,2,3,4,5]pentathiepino[6,7-a]indolizin-9-yl)(4-(4-fluorobenzoyl)piperazinyl)methanone] | ++ | 0 | burst of ROS in all cell lines |
| CCOc1c2c(c3ccc(C(=O)N4CCN(S(=O)(=O)c5ccc(C)cc5)CC4)cn13)SSSSS2 [Compound 6, (6-Ethoxy-[1,2,3,4,5]pentathiepino[6,7-a]indolizin-9-yl)(4-tosylpiperazinyl)methanone] | + | 0 | only in three of the panel |

From publication PMC8305076, “Comprehensive Evaluation of Biological Effects of Pentathiepins on Various Human Cancer Cell Lines and Insights into Their Mode of Action” (International Journal of Molecular Sciences, 2021)
